Target: Jarid1A (Homo sapiens (Human), UniProt P29375)
Experiment: Jarid1A in vitro enzyme inhibition assay (TR-FRET)
Assay type: biochemical
Conditions: 1 nM Jarid1A, 300 nM H3K4me3-biotin peptide, 2 μM alpha-ketoglutaric acid
Description: (§1) This assay determines the ability of a test compound to inhibit Jarid1A, Jarid1B, and JMJD2C demethylase activity. Baculovirus expressed Jarid1A (GenBank Accession #NM_001042603, AA1-1090) was purchased from BPS Bioscience (Cat#50110). Baculovirus expressed Jarid1B (GenBank Accession #NM_006618, AA 2-751) was purchased from BPS Bioscience (Cat #50121) or custom made by MolecularThroughput. Baculovirus expressed JMJD2C (GenBank Accession #BC143571, AA 2-372) was purchased from BPS Bioscience (Cat#50105).
(§2) The enzymatic assay of Jarid1A activity is based upon Time Resolved-Fluorescence Resonance Energy Transfer (TR-FRET) detection. The ability of test compounds to inhibit the activity of Jarid1A was determined in 384-well plate format under the following reaction conditions: 1 nM Jarid1A, 300 nM H3K4me3-biotin labeled peptide (Anaspec cat #64357), 2 μM alpha-ketoglutaric acid in assay buffer of 50 mM HEPES, pH7.3, 0.005% Brij35, 0.5 mM TCEP, 0.2 mg/ml BSA, 50 μM sodium L-ascorbate, and 2 μM ammonium iron(II) sulfate. Reaction product was determined quantitatively by TR-FRET after the addition of detection reagent Phycolink Streptavidin-allophycocyanin (Prozyme) and Europium-anti-mono- or di-methylated histone H3 lysine 4 (H3K4me1-2) antibody (PerkinElmer) in the presence of 5 mM EDTA in LANCE detection buffer (PerkinElmer) at a final concentration of 25 nM and 1 nM, respectively.
(§3) The reaction mixture was incubated at room temperature for 30 minutes, and terminated by the addition of 6 μl of 5 mM EDTA in LANCE detection buffer containing 50 nM Phycolink Streptavidin-allophycocyanin and 2 nM Europium-anti-H3K4me1-2 antibody. Plates were read by EnVisionMultilabel Reader in TR-FRET mode (excitation at 320 nm, emission at 615 nm and 665 nm) after 1 hour incubation at room temperature. A ratio was calculated (665/615) for each well and fitted to determine inhibition constant (IC50).

Jarid1A, sequence (P29375 1-1090): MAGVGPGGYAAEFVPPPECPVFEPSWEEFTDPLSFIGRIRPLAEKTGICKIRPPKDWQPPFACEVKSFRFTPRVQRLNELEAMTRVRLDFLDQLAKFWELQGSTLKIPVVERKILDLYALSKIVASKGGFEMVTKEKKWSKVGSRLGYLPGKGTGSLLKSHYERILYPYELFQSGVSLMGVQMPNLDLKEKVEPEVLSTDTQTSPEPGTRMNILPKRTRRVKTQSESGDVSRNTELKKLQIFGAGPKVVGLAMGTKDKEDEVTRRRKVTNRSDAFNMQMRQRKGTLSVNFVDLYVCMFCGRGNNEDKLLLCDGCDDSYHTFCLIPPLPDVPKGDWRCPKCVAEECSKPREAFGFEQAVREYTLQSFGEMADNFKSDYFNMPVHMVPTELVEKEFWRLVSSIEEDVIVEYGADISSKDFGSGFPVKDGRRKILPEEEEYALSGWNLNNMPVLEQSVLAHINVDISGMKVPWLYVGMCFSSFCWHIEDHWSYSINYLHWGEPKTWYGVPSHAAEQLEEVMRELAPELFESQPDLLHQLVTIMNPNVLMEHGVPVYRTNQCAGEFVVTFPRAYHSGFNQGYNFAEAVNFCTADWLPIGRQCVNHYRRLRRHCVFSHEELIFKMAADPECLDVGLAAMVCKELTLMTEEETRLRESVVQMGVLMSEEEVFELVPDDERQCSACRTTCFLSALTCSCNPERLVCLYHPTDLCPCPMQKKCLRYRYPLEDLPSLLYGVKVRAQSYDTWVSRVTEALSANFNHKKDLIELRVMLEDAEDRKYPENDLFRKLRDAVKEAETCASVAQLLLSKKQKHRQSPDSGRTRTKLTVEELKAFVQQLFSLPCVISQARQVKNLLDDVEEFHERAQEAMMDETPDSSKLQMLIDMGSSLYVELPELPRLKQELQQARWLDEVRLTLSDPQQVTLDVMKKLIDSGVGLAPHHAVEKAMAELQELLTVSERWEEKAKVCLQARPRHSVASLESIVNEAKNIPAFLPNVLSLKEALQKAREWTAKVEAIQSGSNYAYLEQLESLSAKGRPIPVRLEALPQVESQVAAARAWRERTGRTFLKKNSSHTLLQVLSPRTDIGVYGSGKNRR

SMILES	IC50 [nM]
O=C(O)c1ccncc1NCC1CCOc2ccccc21 (stereo not drawn) [Example 58, 3-[(3,4-dihydro-2H-chromen-4-ylmethyl)amino]pyridine-4-carboxylic acid]	≤ 100
COc1ccc2c(c1)CCCC2CNc1cnccc1C(=O)O (stereo not drawn) [Example 60, 3-{[(6-methoxy-1,2,3,4-tetrahydronaphthalen-1-yl)methyl]amino}pyridine-4-carboxylic acid]	≤ 100
Cc1ccc2c(c1)C(CNc1cnccc1C(=O)O)CCO2 (stereo not drawn) [Example 63, 3-{[(6-methyl-3,4-dihydro-2H-chromen-4-yl)methyl]amino}pyridine-4-carboxylic acid]	≤ 100

Target: JMJD2C (Homo sapiens (Human), UniProt Q9H3R0)
Sequence (Q9H3R0 2-372): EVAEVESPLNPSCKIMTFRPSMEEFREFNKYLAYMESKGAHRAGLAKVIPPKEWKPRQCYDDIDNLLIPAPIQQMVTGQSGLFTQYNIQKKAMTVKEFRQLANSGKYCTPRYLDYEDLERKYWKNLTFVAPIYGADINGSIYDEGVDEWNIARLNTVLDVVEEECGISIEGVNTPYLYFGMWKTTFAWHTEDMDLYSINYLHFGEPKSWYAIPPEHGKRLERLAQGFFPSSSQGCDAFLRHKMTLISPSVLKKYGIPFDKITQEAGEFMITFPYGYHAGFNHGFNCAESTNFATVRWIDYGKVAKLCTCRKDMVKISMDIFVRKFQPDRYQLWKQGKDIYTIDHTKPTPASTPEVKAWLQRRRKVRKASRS
Experiment: JMJD2C in vitro enzyme inhibition assay (TR-FRET)
Assay type: biochemical
Conditions: 0.3 nM JMJD2C, 300 nM H3K9me3-biotin peptide, 2 μM alpha-ketoglutaric acid
Procedure, shortened: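 Baculovirus-expressed JMJD2C (AA 2-372), 0.3 nM, with 300 nM biotin-H3K9me3 peptide and 2 μM alpha-ketoglutarate in pH 7.3 HEPES buffer with ascorbate and Fe(II); 30 min at room temperature.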

SMILES	IC50 [nM]
O=C(O)c1ccncc1NCC1CCOc2ccccc21 (stereo not drawn) [Example 58, 3-[(3,4-dihydro-2H-chromen-4-ylmethyl)amino]pyridine-4-carboxylic acid]	≤ 100
COc1ccc2c(c1)CCCC2CNc1cnccc1C(=O)O (stereo not drawn) [Example 60, 3-{[(6-methoxy-1,2,3,4-tetrahydronaphthalen-1-yl)methyl]amino}pyridine-4-carboxylic acid]	100 to 1000
Cc1ccc2c(c1)C(CNc1cnccc1C(=O)O)CCO2 (stereo not drawn) [Example 63, 3-{[(6-methyl-3,4-dihydro-2H-chromen-4-yl)methyl]amino}pyridine-4-carboxylic acid]	100 to 1000

Target: Jarid1B (Homo sapiens (Human), UniProt Q9UGL1)
Sequence (Q9UGL1 2-751): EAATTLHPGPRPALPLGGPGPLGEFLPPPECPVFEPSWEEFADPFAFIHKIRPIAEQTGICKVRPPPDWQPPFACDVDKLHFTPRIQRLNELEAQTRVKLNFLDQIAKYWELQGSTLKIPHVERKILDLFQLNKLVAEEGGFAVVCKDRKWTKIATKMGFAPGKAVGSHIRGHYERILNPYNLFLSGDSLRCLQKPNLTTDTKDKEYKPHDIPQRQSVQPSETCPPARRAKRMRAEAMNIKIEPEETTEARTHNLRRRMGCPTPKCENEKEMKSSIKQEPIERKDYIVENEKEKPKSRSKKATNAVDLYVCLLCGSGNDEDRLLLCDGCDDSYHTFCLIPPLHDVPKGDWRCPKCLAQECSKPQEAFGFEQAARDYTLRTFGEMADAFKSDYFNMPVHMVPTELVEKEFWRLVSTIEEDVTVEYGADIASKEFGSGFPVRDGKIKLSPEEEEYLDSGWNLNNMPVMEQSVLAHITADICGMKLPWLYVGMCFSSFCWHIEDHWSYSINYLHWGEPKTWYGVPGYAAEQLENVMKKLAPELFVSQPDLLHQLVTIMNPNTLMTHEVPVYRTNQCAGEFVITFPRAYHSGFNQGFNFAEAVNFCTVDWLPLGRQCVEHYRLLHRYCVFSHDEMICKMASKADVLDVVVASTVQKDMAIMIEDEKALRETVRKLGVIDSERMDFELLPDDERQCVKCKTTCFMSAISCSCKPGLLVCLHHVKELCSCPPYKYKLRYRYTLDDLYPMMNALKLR
Experiment: Jarid1B in vitro enzyme inhibition assay (TR-FRET)
Assay type: biochemical
Conditions: 0.8 nM Jarid1B, 300 nM H3K4me3-biotin peptide, 2 μM alpha-ketoglutaric acid
Description: as §1
as §2, with “The” for “The enzymatic assay of Jarid1A activity is based upon Time Resolved-Fluorescence Resonance Energy Transfer (TR-FRET) detection. The”, “of Jarid1B” for “of Jarid1A”, “conditions: 0.8” for “conditions: 1”, “nM Jarid1B,” for “nM Jarid1A,”
as §3

SMILES	IC50 [nM]
O=C(O)c1ccncc1NCC1CCOc2ccccc21 (stereo not drawn) [Example 58, 3-[(3,4-dihydro-2H-chromen-4-ylmethyl)amino]pyridine-4-carboxylic acid]	≤ 100
COc1ccc2c(c1)CCCC2CNc1cnccc1C(=O)O (stereo not drawn) [Example 60, 3-{[(6-methoxy-1,2,3,4-tetrahydronaphthalen-1-yl)methyl]amino}pyridine-4-carboxylic acid]	≤ 100
Cc1ccc2c(c1)C(CNc1cnccc1C(=O)O)CCO2 (stereo not drawn) [Example 63, 3-{[(6-methyl-3,4-dihydro-2H-chromen-4-yl)methyl]amino}pyridine-4-carboxylic acid]	≤ 100

Reference: patent publication US9611221B2, “Histone demethylase inhibitors” (CELGENE QUANTICEL RESEARCH, INC., priority 2012, dated 2017)
